The source of these data is patent publication US4705799A, “Aminomethyl oxooxazolidinyl benzenes useful as antibacterial agents” (E. I. Du Pont de Nemours and Company, priority 1985, dated 1987).

The test system of test [1] is Escherichia coli. Description: In vivo efficacy of compounds administered subcutaneously in mouse intraperitoneal infections. The note with it: sc, 168 h; mouse i.p. Escherichia coli infection; subcutaneous; dosed at infection and 4 h post-infection; 7 days; read-out: ED50 (50 percent effective dose).
For test [2], the system named is Staphylococcus aureus. The description is as above. The note with it: sc, 168 h; mouse i.p. Staphylococcus aureus infection; subcutaneous; dosed at infection and 4 h post-infection; 7 days; read-out: ED50 (50 percent effective dose).
In test [3] the test system is Escherichia coli. Description: In vivo efficacy of orally administered compounds in mouse intraperitoneal infections. The conditions noted are these: 168 h; mouse i.p. Escherichia coli infection; oral; dosed at infection and 4 h post-infection; 7 days; read-out: ED50 (50 percent effective dose).
Test [4] relates to Staphylococcus aureus. The test is described as above. The conditions noted are these: Staphylococcus aureus, po, 168 h, mouse i.p. Staphylococcus aureus infection; oral; dosed at infection and 4 h post-infection; 7 days; read-out: ED50 (50 percent effective dose).
Test [5] has as its system Staphylococcus epidermidis. The test can be described thus: In vitro broth dilution minimal inhibitory concentration (standard microdilution method). It is filed as cell-based. The note with it: 24 h, Mueller-Hinton broth, 24-hour, read-out: Microdilution Broth MIC.
For test [6], the system named is Escherichia coli. Described as above. It is filed as cell-based. The note with it: Escherichia coli; Mueller-Hinton broth; 24-hour; read-out: Microdilution Broth MIC. On the technique in general: Broth dilution looks for growth in wells or tubes with falling amounts of substance.

Values after ≈ are worked out from the molar mass of the structure shown.

Take `CCCCCCN(CC1CN(c2ccc(S(C)(=O)=O)cc2)C(=O)O1)C(C)=O` (racemic) [Example 122, (dl)-N-Hexyl-N-[3-[4-(methylsulfonyl)phenyl]-2-oxooxazolidin-5-ylmethyl]acetamide]: the ED50 is > 120 mg/kg in test [1], 16.3 mg/kg in test [2], > 120 mg/kg in test [3] and 48.4 mg/kg in test [4]. For the same compound, the minimum inhibitory concentration (MIC) in test [5] and in test [6] was > 200 µg/mL in each case.
For the compound `CC(=O)N(CC1CN(c2ccc(S(C)(=O)=O)cc2)C(=O)O1)C1CCCCC1` (racemic) [Example 124, (dl)-N-cyclohexyl-N-[3-[4-(methylsulfonyl)phenyl]-2-oxooxazolidin-5-ylmethyl]acetamide], the ED50 was > 120 mg/kg in test [1], 16.3 mg/kg in test [2], > 120 mg/kg in test [3] and 48.4 mg/kg in test [4]. Besides, the minimal inhibitory concentration (MIC) in test [5] and in test [6] was > 200 µg/mL each time.
With `CS(=O)(=O)c1ccc(N2CC(CNC(=O)C(Cl)Cl)OC2=O)cc1` (single isomer, unassigned) [Example 22, (l)-2,2-Dichloro-N-[3-[4-(methylsulfonyl)phenyl]-2-oxooxazolidin-5-ylmethyl]acetamide], the ED50 in test [1] came out at 11.8 mg/kg; in test [3], 71.1 mg/kg; in test [4], 14.2 mg/kg. Besides, the minimum inhibitory concentration (MIC) came out at 2.4 µg/mL (≈ 6.3 µM) in test [5] and 9.4 µg/mL (≈ 24.7 µM) in test [6].
Consider `COC(=O)NCC1CN(c2ccc(S(C)(=O)=O)cc2)C(=O)O1` (single isomer, unassigned) [Example 26, (l)-N-[3-[4-(Methylsulfonyl)phenyl]-2-oxooxazolidin-5-ylmethyl]carbamic acid, methyl ester], for which the ED50 was determined as 40.7 mg/kg in test [1], 56.2 mg/kg in test [3] and 1.7 mg/kg in test [4]. The MIC is 6.3 µg/mL (≈ 19.2 µM) in test [5] and 100 µg/mL (≈ 305 µM) in test [6].
Regarding `NS(=O)(=O)c1ccc(N2CC(CNC(=O)C(Cl)Cl)OC2=O)cc1` (single isomer, unassigned) [Example 112, (l)-2,2-Dichloro-N-[3-[4-(aminosulfonyl)phenyl]-2-oxooxazolidin-5-ylmethyl]acetamide], the ED50 is 62.7 mg/kg in test [1], 14.4 mg/kg in test [2], > 360 mg/kg in test [3] and > 360 mg/kg in test [4]. The figures for the minimal inhibitory concentration (MIC) in test [5] and in test [6] were 12.5 µg/mL (≈ 32.7 µM) and 50 µg/mL (≈ 131 µM), respectively.
For the compound `CC(=O)NCC1CN(c2ccc(S(=O)(=O)N=[N+]=[N-])cc2)C(=O)O1` (single isomer, unassigned) [Example 114, (l)-N-[3-(4-Azidosulfonylphenyl)-2-oxooxazolidin-5-ylmethyl]acetamide], the 50% effective dose (ED50) in test [1] turned out to be 12.5 mg/kg; in test [3], 10.5 mg/kg; in test [4], 15.3 mg/kg. Moreover, the MIC in test [5] and in test [6] was 200 µg/mL (≈ 589 µM) each time.
As for `CSCc1ccc(N2CC(CNC(C)=O)OC2=O)cc1` (single isomer, unassigned) [Example 163, (l)-N-[3-[4-(Methylthiomethyl)phenyl]-2-oxo-5-oxazolidinylmethyl]acetamide], the median effective dose (ED50) came out at 33.3 mg/kg in test [1], 3.2 mg/kg in test [2] and 5.4 mg/kg in test [4]. Besides, the figures for the MIC in test [5] and in test [6] were 2 µg/mL (≈ 6.79 µM) and > 128 µg/mL, respectively.
As for `CC(=O)NCC1CN(c2ccc(C[S+](C)[O-])cc2)C(=O)O1` (single isomer, unassigned) [Example 164, (l)-N-[3-[4-(Methylsulfinylmethyl)phenyl]-2-oxo-5-oxazolidinylmethyl]acetamide], the 50% effective dose (ED50) in test [1] is > 120 mg/kg; in test [2] it was 9.4 mg/kg; in test [4], 14 mg/kg. Moreover, the results for the minimum inhibitory concentration (MIC) in test [5] and in test [6] were 16 µg/mL (≈ 51.6 µM) and > 128 µg/mL, respectively.
In the case of `CC(=O)NCC1CN(c2ccc(C(=O)C[S+](C)[O-])cc2)C(=O)O1` (single isomer, unassigned) [Example 165, (l)-N-[3-[4-(Methylsulfinyl)acetylphenyl]-2-oxo-5-oxazolidinylmethyl]acetamide dihydrate], the figures for the ED50 in test [1], in test [2] and in test [4] were > 120 mg/kg, 8.4 mg/kg and 16.4 mg/kg, respectively. In addition, the MIC in test [5] is 12.5 µg/mL; in test [6], > 200 µg/mL.
In the case of `CCC(=O)NCC1CN(c2ccc(C(C)=O)cc2)C(=O)O1` (single isomer, unassigned) [Example 171, (l)-N-[3-(4-Acetylphenyl)-2-oxo-5-oxazolidinylmethyl]propanamide], the ED50 in test [1] is 21.6 mg/kg; in test [2] it was 1.6 mg/kg; in test [4], 3.3 mg/kg. Further, the minimum inhibitory concentration (MIC) in test [5] is 4 µg/mL (≈ 13.8 µM); in test [6], > 128 µg/mL.
`C#Cc1ccc(N2CC(CNC(C)=O)OC2=O)cc1` (single isomer, unassigned) [Example 182, (l)-N-[3-(4-Ethynylphenyl)-2-oxo-5-oxazolidinylmethyl]acetamide]: the 50% effective dose (ED50) in test [1] is > 120 mg/kg; in test [2], 7 mg/kg; in test [4] it was 16 mg/kg. Besides, the minimum inhibitory concentration (MIC) in test [5] was 16 µg/mL (≈ 61.9 µM); in test [6], > 128 µg/mL.
Take `CC(C)(C)C(=O)NCC1CN(c2ccc(S(C)(=O)=O)cc2)C(=O)O1` (stereo not shown) [Example 30]: the ED50 in test [1] is > 120 mg/kg; in test [2], 57.4 mg/kg; in test [4], > 120 mg/kg. Besides, the MIC in test [5] is 200 µg/mL (≈ 564 µM); in test [6], > 200 µg/mL.
As for `COCC(=O)NCC1CN(c2ccc(S(C)(=O)=O)cc2)C(=O)O1` (stereo not shown) [Example 57], the ED50 in test [1] stood at 12.9 mg/kg; in test [3], 39 mg/kg; in test [4] it was 10.8 mg/kg. Besides, the MIC amounted to 12.5 µg/mL (≈ 36.5 µM) in test [5] and 100 µg/mL (≈ 292 µM) in test [6].
On to `C=C(C)c1ccc(N2CC(CNC(C)=O)OC2=O)cc1` (stereo not shown) [Example 97], for which the median effective dose (ED50) in test [1] was > 120 mg/kg; in test [2], 9.5 mg/kg; in test [4], 4.9 mg/kg. Besides, the results for the MIC in test [5] and in test [6] were 3.1 µg/mL (≈ 11.3 µM) and > 200 µg/mL, respectively.
As to `CCCc1ccc(N2CC(CNC(C)=O)OC2=O)cc1` (stereo not shown) [Example 136], the ED50 in test [1] is 100 mg/kg; in test [2] it was < 4.4 mg/kg; in test [3], 100 mg/kg. Moreover, the MIC is 6.25 µg/mL (≈ 22.6 µM) in test [5] and > 200 µg/mL in test [6].
On to `CC(=O)c1ccc(N2CC(CNC=O)OC2=O)cc1` (stereo not shown) [Example 173], for which the ED50 in test [1] worked out at 79 mg/kg; in test [2], 4.5 mg/kg; in test [4], 6.9 mg/kg. The MIC in test [5] is 4 µg/mL (≈ 15.3 µM); in test [6], > 128 µg/mL.
The matching figures for `CC(=O)c1ccc(N2CC(CNC(=O)CCl)OC2=O)cc1` (stereo not shown) [Example 174]: > 120 mg/kg, 12.2 mg/kg, 8.1 mg/kg, 1 µg/mL (≈ 3.22 µM) and 32 µg/mL (≈ 103 µM).
In the case of `CC(=O)c1ccc(N2CC(CNC(=O)CN=[N+]=[N-])OC2=O)cc1` (stereo not shown) [Example 175], the values for the 50% effective dose (ED50) in test [1], in test [2] and in test [4] were 73.5 mg/kg, 8.2 mg/kg and 6.6 mg/kg, respectively. The results for the MIC in test [5] and in test [6] were 4 µg/mL (≈ 12.6 µM) and 128 µg/mL (≈ 403 µM), respectively.
For the compound `CC(=O)c1ccc(N2CC(CNC(N)=O)OC2=O)cc1` (stereo not shown) [Example 177], the 50% effective dose (ED50) in test [1] was found to be 34 mg/kg; in test [2], 2.8 mg/kg; in test [4], 3.7 mg/kg. Besides, the MIC is 4 µg/mL (≈ 14.4 µM) in test [5] and > 128 µg/mL in test [6].
As to `COC(=O)NCC1CN(c2ccc(C(C)=O)cc2)C(=O)O1` (stereo not shown) [Example 179], the median effective dose (ED50) in test [1] is 83.1 mg/kg; in test [2], 1.7 mg/kg; in test [4], 2 mg/kg. In addition, the MIC in test [5] amounted to 4 µg/mL (≈ 13.7 µM); in test [6], 128 µg/mL (≈ 438 µM).

As a reminder, the ED50 is the dose at which the effect has come halfway, by size or by number of responders. The term MIC denotes the least concentration at which growth counts as inhibited.
